# Assay results published in patent publication US8158764B2 (priority 2006, dated 2012).
# Values joined by “and” are separate entries in the source; they are usually repeats but may differ in a detail not shown here. Equal values may be shown once.
# Tests used:
# human μ receptors = biological target: T1, human μ receptors (Homo sapiens, UniProt P35372); test: biochemical; type: binding
# T1 construct: expressed in transfected cells; host or cells: HEK-293
# κ receptors = biological target: T2, κ receptors (Cavia porcellus, UniProt P41144); test: Affinity to κ receptors, [3H]U-69593 binding on cerebellum homogenates; parameters: species or system guinea-pigs; conditions: for Ki: guinea-pig cerebellum, 0.7 nM [3H]U-69593, read-out: Ki (nM) κ Receptor
# T2 construct: homogenates of guinea-pigs cerebellum (250 μg of protein); from tissue; host or cells: guinea-pig cerebellum
# Procedure: (§1) The non specific binding was determined in the presence of 10 μM of naltrexone. After incubation, samples were rapidly filtered through glass fibers (GF/B, Packard), previously incubated with 0.3% of polyethyleneimine and rinsed several times with 50 mM of cold Tris-HCl using a “96-sample cell harvester” (Unifilter, Packard). Filters were afterwards dried and the radioactivity was counted.
# [1] = Activity and toxicity of the 3-methoxy derivative (test not specified); conditions: in words
# [2] = Tail flick test (analgesic activity); type: in vivo, mouse; parameters: AUC, tail flick test: unit not given here; conditions: for duration of the analgesic activity compared with morphine: in words, tail flick and hot plate tests; for ED50 / Max Effect (time), tail flick test: mouse, intravenous
# Procedure: The “Tail flick” test (test of D'Amour & Smith, 1941, Pharmacol Exp Ther; 72: 74-79) consists in placing the tail of a mouse, after administration of a product, in front of an infrared source in order to produce a nociceptive stimulus (a surface temperature of 55° C.). The reaction time (RT) of the mouse (latency between the start of the light beam and the moment the mouse withdraws its tail) was measured in duplicate at 8 times spread from […] after administration of the product. A maximal 10 second-period has been chosen as the maximal reaction time in order to avoid any tissue damage for the animal.
# Products were intravenously-administered at doses comprised between 0.5 and 8 mg/kg (8 mice per group).
# Two measures of reaction time were realized before administration of the product for each mouse so as to establish a base line.
# The MPE % represents the percentage of possible maximal effect and corresponds to the following formula: […]
# [3] = Hot plate test (analgesic activity); type: in vivo; conditions: mouse, intravenous
# δ receptors = biological target: T3, δ receptors (Homo sapiens, UniProt P41143); test: Affinity to δ receptors, [3H]DADLE binding on cell membrane homogenates (CHO cells)
# T3 construct: expressed in transfected cells; host or cells: CHO
# Procedure: as §1
# κ receptor [4] = biological target: T4, κ receptor (Oryctolagus cuniculus, UniProt G1SJ19); type: biochemical, rabbit
# T4 construct: using prostatic segments of rabbits' deferens vas; from tissue; host or cells: rabbit vas deferens (prostatic segments)
# κ receptor [5] = biological target: T4, κ receptor; test: Antagonist activity on κ receptor, electrically stimulated rabbit vas deferens; type: biochemical
# Procedure: The agonist/antagonist activity on K receptors of compounds according to the invention was estimated by using prostatic segments of rabbits' deferens vas, stretched and stimulated by an electric current of 0.1 Hz during 1 msec.
# In order to test an antagonist activity, a response control (peak of contraction of the tissue) was obtained by exposing tissues to a high concentration (0.1 μM) in specific agonist U-69593.
# Tissues were then exposed to growing concentrations of the compound according to the invention or to the specific agonist. The various concentrations were cumulated and each concentration was maintained in contact with the tissue until a stable response was obtained or up to […].
# An antagonist response was observed when the amplitude of peaks of contractions provoked by electric stimulation was similar to the one observed with the nor-BNI.
# The measured parameter was a maximal change of amplitude of the peaks of contractions provoked by electric stimulation with various concentrations of the compound.
# [6] = Intestinal transit in mice
# T1 sequence (P35372 whole entry): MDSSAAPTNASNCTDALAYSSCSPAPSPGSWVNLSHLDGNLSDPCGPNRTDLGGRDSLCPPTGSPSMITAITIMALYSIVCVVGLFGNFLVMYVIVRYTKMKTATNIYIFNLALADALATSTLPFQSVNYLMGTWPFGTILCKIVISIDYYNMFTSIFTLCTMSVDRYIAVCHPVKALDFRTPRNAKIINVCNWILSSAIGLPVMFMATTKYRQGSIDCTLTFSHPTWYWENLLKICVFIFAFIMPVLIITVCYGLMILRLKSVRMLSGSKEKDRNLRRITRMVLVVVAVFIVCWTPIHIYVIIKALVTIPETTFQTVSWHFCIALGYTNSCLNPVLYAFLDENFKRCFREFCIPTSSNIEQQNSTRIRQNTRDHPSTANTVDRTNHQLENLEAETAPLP
# T2 sequence (P41144 whole entry): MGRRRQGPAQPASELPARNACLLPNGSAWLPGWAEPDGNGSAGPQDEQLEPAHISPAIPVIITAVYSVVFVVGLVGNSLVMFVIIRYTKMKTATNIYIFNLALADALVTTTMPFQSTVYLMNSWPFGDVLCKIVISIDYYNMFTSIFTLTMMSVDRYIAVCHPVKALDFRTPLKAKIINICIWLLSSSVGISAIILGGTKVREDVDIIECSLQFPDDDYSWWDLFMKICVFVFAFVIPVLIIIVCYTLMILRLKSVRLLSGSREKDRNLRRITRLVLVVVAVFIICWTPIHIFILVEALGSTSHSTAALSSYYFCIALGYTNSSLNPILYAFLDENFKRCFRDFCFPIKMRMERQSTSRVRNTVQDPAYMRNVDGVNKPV
# T4 sequence (G1SJ19 1-383): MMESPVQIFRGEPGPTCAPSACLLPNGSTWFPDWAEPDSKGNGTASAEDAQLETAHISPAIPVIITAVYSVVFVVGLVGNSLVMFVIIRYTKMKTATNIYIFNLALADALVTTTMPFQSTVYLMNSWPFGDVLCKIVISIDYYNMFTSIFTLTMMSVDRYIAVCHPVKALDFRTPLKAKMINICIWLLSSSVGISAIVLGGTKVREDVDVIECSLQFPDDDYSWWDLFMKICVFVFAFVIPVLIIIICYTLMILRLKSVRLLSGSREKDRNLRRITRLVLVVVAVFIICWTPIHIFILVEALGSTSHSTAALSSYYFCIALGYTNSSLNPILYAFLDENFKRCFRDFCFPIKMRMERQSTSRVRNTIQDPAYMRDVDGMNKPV
# T3 sequence (P41143 whole entry): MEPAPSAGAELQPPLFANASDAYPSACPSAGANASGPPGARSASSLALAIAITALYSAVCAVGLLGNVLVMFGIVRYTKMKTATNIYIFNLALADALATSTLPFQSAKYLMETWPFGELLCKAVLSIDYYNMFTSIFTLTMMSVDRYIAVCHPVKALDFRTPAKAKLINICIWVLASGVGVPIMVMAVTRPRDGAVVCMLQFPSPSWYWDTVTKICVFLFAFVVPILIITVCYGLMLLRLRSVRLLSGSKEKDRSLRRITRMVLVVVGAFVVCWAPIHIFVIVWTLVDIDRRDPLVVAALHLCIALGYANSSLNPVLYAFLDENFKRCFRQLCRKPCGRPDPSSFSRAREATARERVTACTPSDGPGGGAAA
Compound,Ki (human μ receptors) [nM],Ki (κ receptors) [nM],"AUC, tail flick test ([2]; dose 1 mg/kg iv)","AUC, tail flick test ([2]; dose 2 mg/kg iv)","AUC, tail flick test ([2]; dose 4 mg/kg iv)","AUC, tail flick test ([2]; dose 8 mg/kg iv)",duration of the analgesic activity compared with morphine [2],ED50 [2] [mg/kg],"Max Effect (time), tail flick test [2] [min]",ED50 [3] [mg/kg],"Effet max (time), hot plate test [3] [min]",also measured
COc1ccc2c3c1OC1C(OC4OC(C(=O)NCCS)C(O)C(O)C4O)C=CC4C(C2)N(C)CCC341 (centres unmarked) [Compound C6G-cya],11,100,,,,,,,,,,activity of the 3-methoxy substituted compound [1]: inactive; toxicity of the 3-methoxy substituted compound [1]: toxic
CCOc1ccc2c3c1OC1C(OC4OC(C(=O)NCCS)C(O)C(O)C4O)C=CC4C(C2)N(C)CCC341 (centres unmarked) [Compound M3Et-6G-cya],13,220,1047.85,2538.93,5012.90,6059.22,much longer,2.04,120,2.75,120,
CCOc1ccc2c3c1O[C@H]1[C@@H](O[C@@H]4O[C@H](C(=O)NCCSSCCC(=O)Nc5cccc6c7c([nH]c56)[C@@H]5Oc6c(O)ccc8c6[C@@]56CCN(CC5CC5)[C@H](C8)[C@]6(O)C7)[C@@H](O)[C@H](O)[C@H]4O)C=CC4[C@@H](C2)N(C)CC[C@@]341 (some centres unmarked) [M3Et-6G-cya-3MP-NTI],,,,2576,4410,5733,,2.9,120,,,
CCOc1ccc2c3c1OC1C(OC4OC(C(=O)NCCSSCCNC(=O)C5OC(OC6C=CC7C8Cc9ccc(OCC)c%10c9C7(CCN8C)C6O%10)C(O)C(O)C5O)C(O)C(O)C4O)C=CC4C(C2)N(C)CCC341 (centres unmarked) [M3Et-6G-cya-cya-M3Et-6G],14,25,1233.75,4824.51,5915.16,5817.46,much longer,1.32,120,1.35,120,"Ki (δ receptors): > 1000 nM; improvement of affinity for κ receptors (factor) (κ receptors; compared with morphine): 6; agonist activity: response in % of the response control at U-69593 (κ receptor [4]): 0% and −4% and −3%; antagonist activity: response in % of the response control at U-69593 (0.1 μM) (κ receptor [5]; compound 0.03 μM): 100%; antagonist activity: response in % of the response control at U-69593 (0.1 μM) (κ receptor [5]; compound 0.3 μM): 100%; antagonist activity: response in % of the response control at U-69593 (0.1 μM) (κ receptor [5]; compound 3 μM): 92%; antagonist activity: response in % of the response control at U-69593 (0.1 μM) (κ receptor [5]; compound 30 μM): 71%; agonist/antagonist behaviour on κ receptor (κ receptor [5]; in words): behaves as a κ receptor antagonist; AUC, tail flick test ([2]; dose 0.5 mg/kg iv): 617.79; duration of maximum analgesic activity ([2]; injected at two-fold ED50, no supplementary dose): at least 6 hours; transit inhibition ([6]; at the maximal analgesic effect after iv injection at ED50): about 90%; analgesia when transit speed becomes normal ([6]; between 10 and 12 hours after injection): 50%; effect on transit while analgesic activity is maintained at maximum ([6]; in words): transit only slows down"
"Oc1ccc2c3c1O[C@H]1c4[nH]c5c(c4C[C@@]4(O)[C@@H](C2)N(CC2CC2)CC[C@]314)C[C@@]1(O)[C@H]2Cc3ccc(O)c4c3[C@@]1(CCN2CC1CC1)[C@H]5O4 [nor-BNI, nor-binaltorphimine, reference compound]",,,,,,,,,,,,antagonist activity: response in % of the response control at U-69593 (0.1 μM) (κ receptor [5]; compound 0.1 nM): 80%; antagonist activity: response in % of the response control at U-69593 (0.1 μM) (κ receptor [5]; compound 0.3 nM): 55%; antagonist activity: response in % of the response control at U-69593 (0.1 μM) (κ receptor [5]; compound 1 nM): −1%
